Measured values from ChEMBL document CHEMBL1145527, “Design, synthesis, and antiproliferative and CDK2-cyclin a inhibitory activity of novel flavopiridol analogues” (Bioorg Med Chem, 2007).

Experiments:
[1] = molecular target: Cyclin-dependent kinase 2/cyclin A (Homo sapiens, UniProt P24941); test: Inhibition of CDK2/Cyclin A; assay type: protein-complex assay
[2] = Antiproliferative activity against ID8 cells; assay type: functional, cell-based; conditions: Mus musculus
MCF7 = test: Antiproliferative activity against MCF7 cells; assay type: functional, cell-based; conditions: Homo sapiens

Row | SMILES | IC50 [1] [µM] | IC50 [2] [µM] | IC50 (MCF7) [µM]
1 | CC(C)(C)OC(=O)N[C@H](Cc1ccccc1)C(=O)Nc1ccc(O)c2c(=O)cc(-c3ccccc3Cl)oc12 | 417 | 12 | 4.5
2 | CN1CC[C@H](c2c(O)cc(O)c3c(=O)cc(-c4ccccc4Cl)oc23)[C@H](O)C1 [ALVOCIDIB] |  | 0.007 | 0.026
3 | Cc1ccc(C(=O)Nc2c(O)cc(O)c3c(=O)cc(-c4ccccc4Cl)oc23)cc1 | 90 |  | 9.7
4 | O=C(Nc1ccc(O)c2c(=O)cc(-c3ccccc3Cl)oc12)c1ccccc1 | 417 | 13 | 7.1
5 | C[C@@H](NC(=O)OC(C)(C)C)C(=O)Nc1ccc(O)c2c(=O)cc(-c3ccccc3Cl)oc12 |  | 104 | 5.5
6 | Cc1ccc(C(=O)Nc2ccc(O)c3c(=O)cc(-c4ccccc4Cl)oc23)cc1 |  | 16 | 10
7 | CCC(C)OC(=O)Nc1ccc(O)c2c(=O)cc(-c3ccccc3Cl)oc12 (stereo not given) | 417 | 18 | 30
8 | COc1ccc(C(=O)Nc2ccc(O)c3c(=O)cc(-c4ccccc4Cl)oc23)cc1 | 383 | 5 | 3.5
9 | CSCC[C@H](NC(=O)OC(C)(C)C)C(=O)Nc1ccc(O)c2c(=O)cc(-c3ccccc3Cl)oc12 |  | 6.2 | 20
10 | O=C(Nc1ccc(O)c2c(=O)cc(-c3ccccc3Cl)oc12)c1ccc(Cl)cc1 | 417 | 5.5 | 4.6
11 | COc1ccc(C(=O)Nc2c(O)cc(O)c3c(=O)cc(-c4ccccc4Cl)oc23)cc1 | 54 |  | 13
12 | O=C(Nc1c(O)cc(O)c2c(=O)cc(-c3ccccc3Cl)oc12)c1ccc(Cl)cc1 | 339 |  | 13
13 | CSCC[C@@H](NC(=O)OC(C)(C)C)C(=O)Nc1ccc(O)c2c(=O)cc(-c3ccccc3Cl)oc12 |  | 13 | 2.8
14 | O=C(Nc1c(O)cc(O)c2c(=O)cc(-c3ccccc3Cl)oc12)c1ccccc1 | 91 |  | 8.5
15 | CC(C)(C)OC(=O)N[C@@H](Cc1ccccc1)C(=O)Nc1ccc(O)c2c(=O)cc(-c3ccccc3Cl)oc12 | 417 | 5.3 | 7.1
16 | O=C(Nc1ccc(O)c2c(=O)cc(-c3ccccc3Cl)oc12)c1ccc(Cl)c(Cl)c1 | 217 | 13 | 15
17 | CC(C)C[C@H](NC(=O)OC(C)(C)C)C(=O)Nc1ccc(O)c2c(=O)cc(-c3ccccc3Cl)oc12 | 417 | 5.1 | 4
18 | CC(C)C[C@@H](NC(=O)OC(C)(C)C)C(=O)Nc1ccc(O)c2c(=O)cc(-c3ccccc3Cl)oc12 | 417 | 17 | 
19 | C[C@H](NC(=O)OC(C)(C)C)C(=O)Nc1ccc(O)c2c(=O)cc(-c3ccccc3Cl)oc12 | 417 | 9.8 | 5.5
20 | O=c1cc(-c2ccccc2Cl)oc2c(N3CCOCC3)ccc(O)c12 | 417 | 7.9 | 20
